In this experiment the target is T1, hV1a receptor (Homo sapiens, UniProt P37288).
T1 construct: expressed in transfected cells; host or cells: HEK-293 cells (transient transfection)
As to the kind of experiment: hV1a receptor transcriptional reporter (luciferase) agonist assay in HEK-293 cells. Type of experiment: cell-based. As to conditions: read-out: EC50 hV1a receptor. How it is done:
Agonist activity of compounds on the hV1a receptor was determined in a transcriptional reporter assay by transiently transfecting a hV1a receptor expression DNA into HEK-293 cells in concert with a reporter DNA containing intracellular calcium responsive promoter elements regulating expression of firefly luciferase. See Boss, V., Talpade, D. J., Murphy, T. J. J. Biol. Chem. 1996, May 3; 271(18), 10429-10432 for further guidance on this assay. […] To determine selectivity, compounds were tested in luciferase-based transcriptional reporter assays expressing the human oxytocin (hOT) receptor. Assays for other receptors (hV2, hV1b, rat V1a and rat V2) were also conducted.
The EC50 value given is the geometric mean expressed in nanomol/L (nM). Selectivity values are given as EC50 ratios.

Bridge positions count the residues as written; N and C are the ends. Square brackets hold non-standard residues; d marks the D form. Peptide text beside a SMILES is read from it. Ala(2-furyl) = N[C@@H](Cc1ccco1)C(=O)O; Orn = NCCC[C@H](N)C(=O)O

For orientation: EC50 means the concentration needed to bring the measured effect to its halfway point.

T1 sequence (P37288 whole entry): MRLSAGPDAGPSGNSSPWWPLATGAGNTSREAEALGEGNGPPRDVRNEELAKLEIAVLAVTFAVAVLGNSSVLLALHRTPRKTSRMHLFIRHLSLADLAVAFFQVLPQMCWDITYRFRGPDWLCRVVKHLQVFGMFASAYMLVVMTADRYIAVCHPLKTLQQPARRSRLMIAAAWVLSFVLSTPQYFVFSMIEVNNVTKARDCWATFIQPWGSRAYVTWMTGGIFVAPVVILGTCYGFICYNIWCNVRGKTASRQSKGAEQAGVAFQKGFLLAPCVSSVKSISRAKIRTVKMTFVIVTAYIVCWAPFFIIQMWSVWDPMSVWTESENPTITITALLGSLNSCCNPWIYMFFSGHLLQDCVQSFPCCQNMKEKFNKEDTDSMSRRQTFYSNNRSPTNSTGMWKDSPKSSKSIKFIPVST

On to `CC[C@H](C)[C@@H]1NC(=O)[C@H](Cc2ccco2)NC(=O)[C@@H](N)CSSC[C@@H](C(=O)N2CCC[C@H]2C(=O)N[C@@H](CCCN)C(=O)NCC(N)=O)NC(=O)[C@H](CC(N)=O)NC(=O)[C@H](CCC(N)=O)NC1=O` [Compound 32] (H-C[Ala(2-furyl)]IQNCP[Orn]G-NH2; disulfide 1-6), for which the half-maximal effective concentration (EC50) was 2.64 nM.

Source of the values: patent publication US8778881B2 (priority 2004, dated 2014).
